The target of the assay is T1, SMO (Mus musculus, UniProt P56726).
T1 construct: endogenous in cells; host or cells: C3H10T1/2 (ATCC #CCL-226)
Description: Smoothened (SMO)/Sonic Hedgehog (SHh) Transient Transcriptional Activation Assay (Gli-luciferase reporter in C3H10T1/2 cells). Format: cell-based, murine. The conditions noted are these: SHh 250 ng/ml, 20 hrs; for inhibition at 2 µM: C3H 10T1/2, 2 μM test compound, read-out: SMO CELL % INHIBITION @ 2 μM. In a few lines:
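Luminescence (Dual-Glo) measured after 20 h co-exposure at 37 °C to 250 ng/ml human SHh and compound at 2 uM down to 2 nM final. Cells were C3H10T1/2 carrying a transfected murine 10× Gli response-element luciferase construct with pEGFP, starved 20 h in 0.5% calf serum beforehand.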
(In general: A reporter such as luciferase makes a cellular process visible.)

Where a name gives a salt, the structure may show the parent alone.

The values below come from patent publication US20100029615A1, “BENZIMIDAZOLE DERIVATIVES” (priority 2006, published 2010).

T1 sequence (P56726 33-793): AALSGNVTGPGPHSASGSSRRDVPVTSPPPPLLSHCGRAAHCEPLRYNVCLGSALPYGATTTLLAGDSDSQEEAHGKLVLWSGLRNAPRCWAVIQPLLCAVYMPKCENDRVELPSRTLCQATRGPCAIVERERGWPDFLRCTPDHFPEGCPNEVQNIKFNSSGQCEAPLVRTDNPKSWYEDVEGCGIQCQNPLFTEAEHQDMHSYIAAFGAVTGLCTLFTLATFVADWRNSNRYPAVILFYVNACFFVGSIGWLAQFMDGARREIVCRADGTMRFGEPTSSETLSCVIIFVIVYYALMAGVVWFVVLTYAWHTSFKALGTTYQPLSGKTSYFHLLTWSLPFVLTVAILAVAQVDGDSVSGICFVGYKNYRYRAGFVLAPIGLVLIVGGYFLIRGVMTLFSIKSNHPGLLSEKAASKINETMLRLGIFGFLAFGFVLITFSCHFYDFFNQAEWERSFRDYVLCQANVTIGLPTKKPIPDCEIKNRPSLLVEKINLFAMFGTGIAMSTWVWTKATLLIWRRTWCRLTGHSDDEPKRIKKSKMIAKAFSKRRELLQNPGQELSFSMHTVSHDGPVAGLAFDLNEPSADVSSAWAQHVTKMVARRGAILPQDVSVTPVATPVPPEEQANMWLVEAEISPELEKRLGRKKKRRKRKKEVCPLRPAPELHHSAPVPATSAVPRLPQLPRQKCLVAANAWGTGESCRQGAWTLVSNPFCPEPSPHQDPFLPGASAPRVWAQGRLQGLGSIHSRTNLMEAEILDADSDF

Consider `O=C(CN1C(=O)COc2cccnc21)NC1CCCC(c2nc3ccccc3[nH]2)C1` (centres unmarked) [Example 105, N-[3-(1H-benzimidazol-2-yl)cyclohexyl]-2-(3-oxo-2,3-dihydro-4H-pyrido[3,2-b][1,4]oxazin-4-yl)acetamide triflouroacetate], for which the inhibition at 2 µM came out at 103%.

Turning to `O=C(NC1CCCC(c2nc3ccccc3[nH]2)C1)c1ccnn1-c1ccccc1` (centres unmarked) [Example 106, N-[3-(1H-benzimidazol-2-yl)cyclohexyl]-1-phenyl-1H-pyrazole-5-carboxamide triflouroacetate], the inhibition at 2 µM was determined as 76%.

For the compound `O=C(Cc1cn2cc(Cl)ccc2n1)NC1CCCC(c2nc3ccccc3[nH]2)C1` (centres unmarked) [Example 107, N-[3-(1H-benzimidazol-2-yl)cyclohexyl]-2-(6-chloroimidazo[1,2-a]pyridin-2-yl)acetamide triflouroacetate], the inhibition at 2 µM amounted to 79%.

Turning to `O=C(NC1CCCC(c2nc3ccccc3[nH]2)C1)c1c[nH]c(=O)[nH]c1=O` (centres unmarked) [Example 108, N-[3-(1H-benzimidazol-2-yl)cyclohexyl]-2,4-dioxo-1,2,3,4-tetrahydropyr-imidine-5-carboxamide triflouroacetate], the inhibition at 2 µM is 116%.

With `COc1ncccc1C(=O)NC1CCCC(c2nc3ccccc3[nH]2)C1` (centres unmarked) [Example 109, N-[3-(1H-benzimidazol-2-yl)cyclohexyl]-2-methoxynico-tinamide triflouroacetate], the inhibition at 2 µM came to 97%.

In the case of `CCCN1CCNC(=O)C1CC(=O)NC1CCCC(c2nc3ccccc3[nH]2)C1` (centres unmarked) [Example 110, N-[3-(1H-benzimidazol-2-yl)cyclohexyl]-2-(3-oxo-1-propylpiperazin-2-yl)acetamide triflouroacetate], the inhibition at 2 µM came to 86%.

Take `Cc1cccc(=O)n1CC(=O)NC1CCCC(c2nc3ccccc3[nH]2)C1` (centres unmarked) [Example 111, N-[3-(1H-benzimidazol-2-yl)cyclohexyl]-2-(6-methyl-2-oxopyridin-1(2H)-yl)acetamide triflouroacetate]: the inhibition at 2 µM turned out to be 103%.

On to `O=C(CN1CCCCCC1=O)NC1CCCC(c2nc3ccccc3[nH]2)C1` (centres unmarked) [Example 112, N-[3-(1H-benzimidazol-2-yl)cyclohexyl]-2-(2-oxoazepan-1-yl)acetamide triflouroacetate], for which the inhibition at 2 µM is 93%.

Consider `CN1C[C@H](O)CC1C(=O)NC1CCCC(c2nc3ccccc3[nH]2)C1` (stereo partly drawn) [Example 113, (4R)-N-[3-(1H-benzimidazol-2-yl)cyclohexyl]-4-hydroxy-1-methyl-L-prolinamide triflouroacetate], for which the inhibition at 2 µM came to 93%.

In the case of `O=C(NC1CCCC(c2nc3ccccc3[nH]2)C1)c1cc(C2CC2)n[nH]1` (centres unmarked) [Example 114], the inhibition at 2 µM worked out at 109%.

For the compound `Cn1cc(CC(=O)NC2CCCC(c3nc4ccccc4[nH]3)C2)c2ccccc21` (centres unmarked) [Example 115, N-[3-(1H-benzimidazol-2-yl)cyclohexyl]-2-(1-methyl-1H-indol-3-yl)acetamide triflouroacetate], the inhibition at 2 µM is 106%.

Regarding `Cc1cn2cc(CCC(=O)NC3CCCC(c4nc5ccccc5[nH]4)C3)nc2s1` (centres unmarked) [Example 116, N-[3-(1H-benzimidazol-2-yl)cyclohexyl]-3-(2-methylimidazo[2,1-b][1,3]thiazol-6-yl)propanamide triflouroacetate], the inhibition at 2 µM worked out at 91%.

On to `O=C(CNC(=O)c1ccccc1)NC1CCCC(c2nc3ccccc3[nH]2)C1` (centres unmarked) [Example 117, N-(2-{[3-(1H-benzimidazol-2-yl)cyclohexyl]amino}-2-oxoethyl)benz-amide triflouroacetate], for which the inhibition at 2 µM was 102%.

In the case of `COc1ccc2cc(C(=O)NC3CCCC(c4nc5ccccc5[nH]4)C3)n(C)c2c1` (centres unmarked) [Example 118, N-[3-(1H-benzimidazol-2-yl)cyclohexyl]-6-methoxy-1-methyl-1H-indole-2-carboxamide triflouroacetate], the inhibition at 2 µM is 83%.

Turning to `COc1cc(C(=O)NC2CCCC(c3nc4ccccc4[nH]3)C2)nc(OC)n1` (centres unmarked) [Example 119, N-[3-(1H-benzimidazol-2-yl)cyclohexyl]-2,6-dimethoxypyr-imidine-4-carboxamide triflouroacetate], the inhibition at 2 µM was found to be 75%.

Take `Cc1cc(C)n(CCC(=O)NC2CCCC(c3nc4ccccc4[nH]3)C2)n1` (centres unmarked) [Example 120, N-[3-(1H-benzimidazol-2-yl)cyclohexyl]-3-(3,5-dimethyl-1H-pyrazol-1-yl)propanamide triflouroacetate]: the inhibition at 2 µM came to 70%.

On to `O=C(NC1CCCC(c2nc3ccccc3[nH]2)C1)C1CCCO1` (centres unmarked) [Example 121, N-[3-(1H-benzimidazol-2-yl)cyclohexyl] tetrahydrofuran-2-carboxamide triflouroacetate], for which the inhibition at 2 µM was determined as 94%.

As for `O=C(NC1CCCC(c2nc3ccccc3[nH]2)C1)c1cnn2c1CCCC2` (centres unmarked) [Example 122, N-(3-(1H-benzo[d]imida-zol-2-yl)cyclohexyl)-4,5,6,7-tetrahydropyr-azolo[1,5-a]pyridine-3-carboxamide triflouroacetate], the inhibition at 2 µM came to 92%.

Turning to `CC(=O)N[C@H](Cc1ccccc1)C(=O)NC1CCCC(c2nc3ccccc3[nH]2)C1` (stereo partly drawn) [Example 123, Nalpha-acetyl-N-[3-(1H-benzimidazol-2-yl)cyclohexyl]-D-phenylalanin-amide triflouroacetate], the inhibition at 2 µM came out at 83%.

Take `Cc1ccc(C(=O)NC2CCCC(c3nc4ccccc4[nH]3)C2)c(Cl)n1` (centres unmarked) [Example 124, N-[3-(1H-benzimidazol-2-yl)cyclohexyl]-2-chloro-6-methylnico-tinamide triflouroacetate]: the inhibition at 2 µM is 62%.

Consider `O=C(C[C@H]1C[C@H]2C=C[C@@H]1C2)NC1CCCC(c2nc3ccccc3[nH]2)C1` (stereo partly drawn) [Example 125, N-[3-(1H-benzimidazol-2-yl)cyclohexyl]-2-[(1S,2S,4S)-bicyclo[2.2.1]hept-5-en-2-yl]acetamide triflouroacetate], for which the inhibition at 2 µM was found to be 103%.

Consider `C[S+]([O-])c1ccc(C(=O)NC2CCCC(c3nc4ccccc4[nH]3)C2)cc1` (centres unmarked) [Example 126, N-[3-(1H-benzimidazol-2-yl)cyclophexyl]-4-(methylsulfinyl) benzamide triflouroacetate], for which the inhibition at 2 µM was 83%.

In the case of `O=C(Cn1ccc2sccc2c1=O)NC1CCCC(c2nc3ccccc3[nH]2)C1` (centres unmarked) [Example 127, N-[3-(1H-benzimidazol-2-yl)cyclohexyl]-2-(4-oxothieno[3,2-c]pyridin-5(4H)-yl)acetamide HCl], the inhibition at 2 µM was 100%.

Consider `O=C(Cn1ccc2sccc2c1=O)NC1CCCC(c2nc3ccccc3[nH]2)C1` (centres unmarked) [Example 128, N-[3-(1H-benzimidazol-2-yl)cyclohexyl]-2-(4-oxothieno[3,2-c]pyridin-5(4H)-yl)acetamide triflouroacetate], for which the “SMO CELL % INHIBITION @ 2 μM” value (2 μM test compound) stood at 100%.

Regarding `O=C(CCCC(=O)NC1CCCC(c2nc3ccccc3[nH]2)C1)Nc1ccccc1` (centres unmarked) [Example 129, N-[3-(1H-benzimidazol-2-yl)cyclohexyl]-N′-phenylpentane diamide triflouroacetate], the inhibition at 2 µM came out at 95%.

Turning to `Cn1cc(CN2CCCC2)cc1C(=O)NC1CCCC(c2nc3ccccc3[nH]2)C1` (centres unmarked) [Example 130, N-[3-(1H-benzimidazol-2-yl)cyclohexyl]-1-methyl-4-(pyrrolidin-1-ylmethyl)-1H-pyrrole-2-carboxamide triflouroacetate], the inhibition at 2 µM is 84%.

Broadly, the inhibition is the relative decrease from the control value, in per cent.
